Results: the pKa sets of Baltruschat and Czodrowski (2020)

SMILES | pKa (acidic group) | pKa (basic group)
N#CC(C#N)Cc1ccc([N+](=O)[O-])cc1 | 10.9 | 
O=[PH]([O-])C(NCc1cccnc1)c1ccccc1O (stereo not given) | 12 | 8.05
O=C(O)[C@H]1CC[C@H](O)CC1 | 4.68 | 
C[NH+](C)C[C@@H]1[C@@H](N)[C@]2(C)CC[C@@H]1C2(C)C |  | 7.5
CC(C)CNC(O)=S | 0.38 | 
CC(C)(C)c1cccc(C(C)(C)C)n1 |  | 4.95
CON(C)C |  | 3.65
N[C@H]1C[C@@H]1N |  | 8.82
CCN(C)N |  | 7.3
Nc1nccnn1 |  | 4
CN1C[C@@H](C(=O)[O-])C[C@@]2(O)c3cccc4[nH]cc(c34)C[C@@H]12 |  | 9.2
C[NH+](C)Cc1ccc(O)cc1 | 8.83 | 
C[NH2+]CC/C(N)=N/O |  | 3.6
CCCCCCCCc1c(-c2ccccc2)n[nH]c1O | 10.2 | 
O=C(O)[C@@H]1O[C@H](Oc2ccc3ccc[nH+]c3c2)[C@@H](O)[C@H](O)[C@H]1O | 3 | 
CC(=N\O)/C(CN(C)C)=N\[O-] | 12.5 | 
CNc1ccc[n+](O)c1 |  | -2.42
N#CC(CCN1CCOCC1)(c1ccccc1)c1ccccc1 |  | 6.09
Nc1cccc2nc3ccccc3c(N)c12 |  | 11
C[Si](C)(C)OC1CN(Cc2ccc(F)cc2)C1 |  | 7.91
Oc1ccc(O)c2ccccc12 | 9.25 | 
COc1ccc(N)cc1Br |  | 4.09
C[C@H]1[C@@H]([NH3+])[C@@H](C)[C@@H](N)[C@@H](C)[C@H]1[NH3+] |  | 5.15
Cc1ncnc2ccccc12 |  | 2.52

SMILES | pKa (acidic group) | pKa (basic group)
Cc1cc2cccc(O)c2nc1C | 10.2 | 5.86
CC(=O)n1ccnc1Cc1[nH]cc[nH+]1 |  | 1.93
O=c1cc(CO)occ1O | 7.82 | 
Cc1cc(N)cc(C)c1[N+](=O)[O-] |  | 2.56
S=C(Nc1ccc(Cl)c(Cl)c1)c1ccccc1 | 9.96 | 
Cc1ccc(/N=N/c2ccc(N(C)C)cc2)cc1C |  | 2.37
c1ccc(-c2[nH]c3ccccc3[nH+]2)nc1 |  | -1.59
O=Cc1cccc(C=O)n1 |  | 1.92
CCCNc1ccncc1S(=O)(=O)NC(=O)NC(C)C |  | 7.58
O=C1CCC(=O)N1 | 9.59 | 
Nc1cccc2cc([N+](=O)[O-])ccc12 |  | 3.15
CCCCCCCCCCCNCc1ccc(C)cc1 | 9.46 | 
CC(=O)C(Cc1ccc(Cl)cc1)C(C)=O | 10.2 | 
Cc1cnnc(C)c1 |  | 4.11
OCCn1cnc2ccccc21 |  | 5.29
CCOC(=O)CC(c1ccccc1)N(C)C (stereo not given) |  | 7.66
CCC(C)(O)C(C(=O)O)c1ccc(-c2ccccc2)cc1 (stereo not given) | 3.41 | 
O=C([O-])C[NH+](CCNS(=O)(=O)c1ccc(CCBr)cc1)CC(=O)[O-] | 7.75 | 
Cn1cnc(C(=O)[O-])c1C(=O)O | 3.9 | 
C[C@@H]1CCN2CC=C[C@H]12 |  | 10.6
O=NCC(=O)c1cccnc1 | 7.8 | 
O=C1Cc2c1ccc(O)c2Br | 5.75 | 
C1CCC2CNCCC2C1 (stereo not given) |  | 10.9
O=C(O)c1cc[nH]n1 | 3.84 | 

SMILES | pKa (acidic group) | pKa (basic group)
Nc1nc([O-])c2nc[nH]c2n1 | 12.6 | 9.3
O=C(O)C[C@]1(O)C[C@@H]2CC[C@H]1C2 | 4.46 | 
O=C([O-])C[N+](=O)[O-] | 8.9 | 
COc1ccc(C(=O)O)cc1C | 4.35 | 
CC1(C)OC(=O)CC(=O)O1 | 5.15 | 
O=[N+]([O-])c1cccc2[nH]ncc12 |  | 0.42
O=[N+]([O-])c1cccc(NC=S)c1 | 10.3 | 
O=C([O-])/C=C\c1ccccc1O | 10.7 | 
O=S(=O)(O)c1cccc(C(F)(F)F)c1 | -6.93 | 
Oc1c(Cl)c(Cl)cc(Cl)c1C[NH+]1CCOCC1 | 4.92 | 
C[N+](C)(C)CCCc1ccc(O)cc1 | 9.8 | 
O=[N+]([O-])c1ccc(/C=C/c2nnnn2-c2ccc([N+](=O)[O-])cc2)cc1 |  | -3.15
Cc1cccnc1C |  | 6.57
CC(=O)OCCc1c[nH]cn1 |  | 6.97
CC(C)([NH3+])C(N)=S |  | -8.75
CCCCN(CC[S-])CCCC |  | 11.6
CN(C)c1ncnc2nc[nH]c12 | 10.5 | 3.87
CC1=NCCCC1 |  | 9.57
OC(O)c1ccncc1 | 12.2 | 
CC(C)N/C=[NH+]/c1ccc(-c2c[nH]cn2)cc1 |  | 5.58
Clc1ncnc2nc[nH]c12 | 7.75 | 
O=C(O)[C@@H](P)CC[C@H](P)C(=O)O | 3.62 | 
CCN(CC)CC(=O)Nc1cc(C)ccc1C |  | 7.92
CCCCC1(CC)C(=O)NC(=S)NC1=O | 7.37 | 

SMILES | pKa (acidic group) | pKa (basic group)
COc1ccc(NCO)cc1 |  | 3.72
CCN(CC)S(=O)(=O)c1ccsc1C(=O)O | 2.77 | 
Brc1c[nH]cn1 |  | 3.8
CC1CC[C@H](O)[C@@H](N)C1 (stereo not given in full) |  | 9.5
CC1=[NH+]c2ccccc2/C1=C/C=C1\Cc2ccccc2N1C |  | 1.22
Cc1ccc(C(=O)O)cc1Br | 3.96 | 
Cc1cc(O)n(-c2nc(C)c(C)c([O-])n2)n1 |  | 10.3
CCc1cc(Cl)n(C)c2nc3ccccc3c1-2 |  | 7.46
CCNCC(=O)[O-] |  | 10.2
c1cncc(C2=NCCC2)c1 |  | 8.77
[NH-]S(=O)(=O)c1nnc(Nc2ccccc2)s1 | 11.1 | 
Cc1[nH]c2ccccc2c1CC(=O)O | 4.67 | 
CC(C)(/C=C/C(=O)[O-])c1cc(Br)ccc1O | 10 | 
Ic1cccc(C2NCCS2)c1 (stereo not given) |  | 4.93
Cn1c(=O)[nH]c2nc[nH]c2c1=O | 7.88 | 1.19
CC1=Nc2ccc([N+](=O)[O-])cc2[NH+]=C(C)C1 |  | 2.2
Cn1ccnc1 |  | 7.15
O=C(O)C1c2ccccc2Oc2ccccc21 | 3.89 | 
c1cnc2c(c1)ccc1cccnc12 |  | 4.96
CCCCCCCCCCCCCCCN |  | 10.6
[NH3+]C(Cc1ccccc1)c1nnn[nH]1 (stereo not given) | 1.93 | 
O=C1C=C(S(=O)(=O)[O-])/C(=N\O)c2cn[nH]c21 | 8.6 | 
CC(C)(C)N1CC(O[Si](C)(C)C)C1 |  | 9.24
COc1ccc(O)c(N)c1 | 10 | 

SMILES | pKa (acidic group) | pKa (basic group)
O=[PH]([O-])C([NH2+]Cc1ccccn1)c1ccccc1O (stereo not given) |  | 3.25
CC(C)C([NH2+]c1ccccc1)C(=O)O (stereo not given) | 4.4 | 
Cc1ccccc1OC(C)C(=O)O (stereo not given) | 3.37 | 
CNC(=O)c1ccccn1 |  | 2.4
CN(C)c1ncc2[nH]cnc2n1 | 10.2 | 4.02
CNN(C)C |  | 6.64
Cc1ccc(S(N)(=O)=O)cc1 | 9.89 | 
c1ccc(Nc2ncnc3[nH]ncc23)cc1 |  | 3.92
CCO[Si](C)(CN)OCC |  | 9.19
NCc1ccc(Cl)cc1[N+](=O)[O-] |  | 8.34
CCCCCCN(CCCCCC)c1ccccc1 |  | 4.89
C=C(F)C(=O)O | 2.55 | 
Oc1cncc2cccnc12 | 8.33 | 
O=C(Nc1ccccc1)ONC(=O)c1ccccc1 | 6.4 | 
[NH3+]C[C@H](O)C(=O)O | 2.78 | 
CC(=N\[O-])/C(C)=N/O | 11.9 | 
COC(=O)[C@@H]1[C@@H](O)C[C@H]2CC[C@@H]1N2C |  | 8.21
C[C@H]1CCCC[C@@H]1C(=O)O | 4.74 | 
C/C=C(\C(=O)O)c1ccc([N+](=O)[O-])cc1 | 5 | 
Cn1ccnc1CS | 8.88 | 6.31
CC(C[Si](C)(C)CCl)C(=O)O (stereo not given) | 5.32 | 
CC1CCN(c2cc[nH+]cc2)CC1 |  | -0.56
